The numbers were not newly measured in patent US20050032777A1, “Diazacycloalkanes as oxytocin agonists” (priority 2001, published 2005), which cites them from elsewhere.

The subject of this series is erectile response. The settings on record: male rats.

Each structure is given as a SMILES string. Like-named read-outs stand apart in the source and are kept apart here.

For `CC[C@H](C)[C@@H]1NC(=O)[C@H](Cc2ccc(O)cc2)NC(=O)[C@@H](N)CSSC[C@@H](C(=O)N2CCC[C@H]2C(=O)N[C@@H](CC(C)C)C(=O)NCC(N)=O)NC(=O)[C@H](CC(N)=O)NC(=O)[C@H](CCC(N)=O)NC1=O` [OT, oxytocin], the erectogenic activity entry is, setting by setting: (i.c.v.) “erectogenic”; (iv., doses up to two orders of magnitude greater than i.c.v.) “erectogenic activity”.
